According to US4774381A, “Herbicide resistant tobacco” (E. I. Du Pont de Nemours and Company, priority 1985, dated 1988):

Assays:
Assay type in all cases: cell-based, Nicotiana tabacum
[1] = system: Isolate 24 (S4/+) cell line; assay: Callus growth test; settings: 14 days
Protocol: (§1) Callus growth tests were conducted substantially according to the following procedure. Approximately 50 mg callus tissue, grown on non-selective media, was spread over 7 cm diameter paper filter discs (Whatman No. 1), which were placed on the medium surface of petri dishes containing C1 agar media and varying concentrations of chlorsulfuron. The resulting cultures were incubated for 14 days at 25±1°, under fluorescent lamps programmed to provide a 16-hour photoperiod per day. At the conclusion of the incubation period, tissue was scraped from each filter disc and weighed. The final fresh weights were recorded, and means and standard errors of the means determined for all cases. The significance of differences between responses of individual cell lines to various concentrations of chlorsulfuron was determined at a probability level of 5% by a t-test for populations having different standard deviations, as described by Snedecor, et al., Statistical Methods (Iowa State University Press, Ames, Iowa, (1967), pp. 114-116).
(§2) The isolates tested were established from plants produced by self-fertilization of a S4/+ heterozygote produced by two successive backcrosses of a regenerated mutant plant to normal plants. In addition, growth responses were determined for cell cultures initiated from two individuals of the same genotype with respect to the S4 mutation. The genotypes of these cell lines were confirmed by progeny analyses of the plants from which they were derived. These precautions were intended to eliminate background variability which might otherwise obscure the effects of the resistance mutation.

[2] = system: Isolate 16 (S4/S4) cell line; assay: Callus growth test
Protocol: as §1, §2

[3] = system: Isolate 30 (S4/S4) cell line; assay: Callus growth test; settings: 14 days
Protocol: as §1, §2

[4] = system: Isolate 7 (+/+) cell line; assay: Callus growth test; settings: 14 days
Protocol: as §1, §2

[5] = system: highly resistant tobacco cell line "A"; assay: Growth test of highly resistant cell line
Excerpt: Resistant colonies were selected as they appeared and transferred to medium containing this same elevated level of sulfometuron-methyl. Several cell lines that continued to grow during subsequent passages in the presence of 200 ppb of the herbicide were isolated. […] A large part of this resistance is the result of the S4 mutation, for which this cell line is homozygous. However, because cell line A is inhibited by 100 ppb sulfometuron-methyl to approximatey the same degree as its parent S4/S4 is inhibited by 10 ppb, it appears that the new event increased resistance ten-fold beyond that conferred by the S4/S4 genotype.

[6] = Nicotiana tabacum, 336 h, chlorsulfuron 0.3 ppb, read-out: % of fresh weight at 0 ppb
[7] = Nicotiana tabacum, 336 h, chlorsulfuron 1.0 ppb, read-out: % of fresh weight at 0 ppb
[8] = Nicotiana tabacum, 336 h, chlorsulfuron 3.0 ppb, read-out: % of fresh weight at 0 ppb
[9] = Nicotiana tabacum, 336 h, chlorsulfuron 30.0 ppb, read-out: % of fresh weight at 0 ppb

With `COc1nc(C)nc(NC(=O)NS(=O)(=O)c2ccccc2Cl)n1` [Chlorsulfuron, chlorsulfuron] the activity at 0.0003 µg/mL [1, 6] was 98.9%, the activity at 0.001 µg/mL [1, 7] was 87.5% and the activity at 0.003 µg/mL [1, 8] was 73%. The activity at 0.01 µg/mL ([1]; Nicotiana tabacum, 336 h, chlorsulfuron 10.0 ppb, read-out: % of fresh weight at 0 ppb) was 76.4%, the activity at 0.03 µg/mL [1, 9] was 55.1% and the “Fr. Wt.” value ([1]; chlorsulfuron 0.1 ppb) was 2895 ± 187 mg. The “Fr. Wt.” value ([1]; chlorsulfuron 0.3 ppb) was 2842 ± 124 mg, the “Fr. Wt.” value ([1]; chlorsulfuron 1.0 ppb) was 2515 ± 155 mg and the “Fr. Wt.” value ([1]; chlorsulfuron 3.0 ppb) was 2099 ± 129 mg. The “Fr. Wt.” value ([1]; chlorsulfuron 10.0 ppb) was 2196 ± 235 mg, the “Fr. Wt.” value ([1]; chlorsulfuron 30.0 ppb) was 1585 ± 129 mg and the activity at 0.001 µg/mL ([2]; Nicotiana tabacum, 336 h, chlorsulfuron 1.0 ppb, 14 days, read-out: % of fresh weight at 0 ppb) was 95.8%. The activity at 0.003 µg/mL ([2]; Nicotiana tabacum, 336 h, chlorsulfuron 3.0 ppb, 14 days, read-out: % of fresh weight at 0 ppb) was 90%, the activity at 0.01 µg/mL ([2]; Nicotiana tabacum, 336 h, chlorsulfuron 10.0 ppb, 14 days, read-out: % of fresh weight at 0 ppb) was 95.5% and the activity at 0.03 µg/mL ([2]; Nicotiana tabacum, 336 h, chlorsulfuron 30.0 ppb, 14 days, read-out: % of fresh weight at 0 ppb) was 79.9%. For the same compound, the “significance of growth inhibition (t-test, 5%)” value ([2]; both homozygous mutant lines (Isolates 16 and 30), concentrations below 30 ppb) was “neither homozygous mutant cell was significantly inhibited”, the “Fr. Wt.” value ([2]; chlorsulfuron 0.1 ppb, 14 days) was 3755 ± 259 mg and the “Fr. Wt.” value ([2]; chlorsulfuron 0.3 ppb, 14 days) was 3778 ± 219 mg. The “Fr. Wt.” value ([2]; chlorsulfuron 1.0 ppb, 14 days) was 3148 ± 196 mg, the “Fr. Wt.” value ([2]; chlorsulfuron 3.0 ppb, 14 days) was 2958 ± 161 mg and the “Fr. Wt.” value ([2]; chlorsulfuron 10.0 ppb, 14 days) was 3171 ± 260 mg. The “Fr. Wt.” value ([2]; chlorsulfuron 30.0 ppb, 14 days) was 2625 ± 202 mg, the “increase of tolerance of cultured cells by S4 mutation” value ([2]; homozygous lines at 30 ppb versus Isolate 7 at 0.3 ppb) was “at least 100 fold” and the activity at 0.001 µg/mL [3, 7] was 98.4%. For the same compound, the activity at 0.03 µg/mL [3, 9] was 90.3%, the “Fr. Wt.” value ([3]; chlorsulfuron 0.1 ppb) was 3235 ± 159 mg and the “Fr. Wt.” value ([3]; chlorsulfuron 0.3 ppb) was 3157 ± 76 mg. For the same compound, the “Fr. Wt.” value ([3]; chlorsulfuron 1.0 ppb) was 2707 ± 250 mg, the “Fr. Wt.” value ([3]; chlorsulfuron 3.0 ppb) was 3287 ± 136 mg and the “Fr. Wt.” value ([3]; chlorsulfuron 10.0 ppb) was 2975 ± 139 mg. For the same compound, the “Fr. Wt.” value ([3]; chlorsulfuron 30.0 ppb) was 2486 ± 170 mg, the activity at 0.0001 µg/mL ([4]; Nicotiana tabacum, 336 h, chlorsulfuron 0.1 ppb, read-out: % of fresh weight at 0 ppb) was 93.1% and the activity at 0.0003 µg/mL [4, 6] was 59.8%. For the same compound, the activity at 0.001 µg/mL [4, 7] was 9.2%, the activity at 0.003 µg/mL [4, 8] was 2.5% and the “Fr. Wt.” value ([4]; chlorsulfuron 0.1 ppb) was 2170 ± 94 mg. For the same compound, the “Fr. Wt.” value ([4]; chlorsulfuron 0.3 ppb) was 1395 ± 116 mg, the “Fr. Wt.” value ([4]; chlorsulfuron 1.0 ppb) was 215 ± 33 mg and the “Fr. Wt.” value ([4]; chlorsulfuron 3.0 ppb) was 58 ± 4 mg.

`COC(=O)c1ccccc1S(=O)(=O)NC(=O)Nc1nc(C)cc(C)n1` [Sulfometuron-methyl, sulfometuron-methyl] was tested, and the “increase of resistance beyond that conferred by the S4/S4 genotype” value ([5]; 100 ppb on cell line A versus 10 ppb on S4/S4) was “ten-fold”, the activity at 0.001 µg/mL ([5]; Nicotiana tabacum, sulfometuron-methyl 1 ppb, cell line "A", read-out: % of fresh weight at 0 ppb) was 90% and the activity at 0.01 µg/mL ([5]; Nicotiana tabacum, sulfometuron-methyl 10 ppb, cell line "A", read-out: % of fresh weight at 0 ppb) was 74%. For the same compound, the activity at 0.1 µg/mL ([5]; Nicotiana tabacum, sulfometuron-methyl 100 ppb, cell line "A", read-out: % of fresh weight at 0 ppb) was 24%, the activity at 1 µg/mL ([5]; Nicotiana tabacum, sulfometuron-methyl 1000 ppb, cell line "A", read-out: % of fresh weight at 0 ppb) was 10% and the “concentration allowing growth relative to concentration that completely inhibits a normal cell line” value ([5]; growth at a greatly reduced rate) was 1000 times. The “Fr. wt.” value ([5]; sulfometuron-methyl 1 ppb, cell line "A") was 2379 ± 243 mg, the “Fr. wt.” value ([5]; sulfometuron-methyl 10 ppb, cell line "A") was 1952 ± 133 mg and the “Fr. wt.” value ([5]; sulfometuron-methyl 100 ppb, cell line "A") was 629 ± 72 mg. The “Fr. wt.” value ([5]; sulfometuron-methyl 1000 ppb, cell line "A") was 263 ± 83 mg.
